Experimental data from ChEMBL document CHEMBL1944634, “Design, synthesis and biological evaluation of 6-substituted aminocarbonyl benzimidazole derivatives as nonpeptidic angiotensin II AT1 receptor antagonists” (Eur J Med Chem, 2012).
Where a chain is given by its changes, count along the chain named. Converted amounts (≈) assume the structure as drawn.

Columns and labels:
[1] = target: T1, Type-1 angiotensin II receptor (Homo sapiens, UniProt P30556); test: Displacement of [125I]Sar1 Ile8-Ang 2 from angiotensin 2 AT1 receptor after 180 mins by gamma counting
T1 sequence (P30556 whole entry): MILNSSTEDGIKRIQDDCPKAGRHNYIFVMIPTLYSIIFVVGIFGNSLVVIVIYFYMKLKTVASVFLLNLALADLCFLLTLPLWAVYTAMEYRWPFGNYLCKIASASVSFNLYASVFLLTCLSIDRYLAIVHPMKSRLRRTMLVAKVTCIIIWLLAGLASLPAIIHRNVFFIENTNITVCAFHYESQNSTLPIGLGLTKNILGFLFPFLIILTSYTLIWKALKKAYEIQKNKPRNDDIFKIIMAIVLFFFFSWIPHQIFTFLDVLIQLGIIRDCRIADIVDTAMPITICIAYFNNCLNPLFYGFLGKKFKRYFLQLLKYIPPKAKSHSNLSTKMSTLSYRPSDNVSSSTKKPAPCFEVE

[2] = target: T2, Type-1 angiotensin II receptor (Oryctolagus cuniculus, UniProt P34976); test: Antagonist activity at angiotensin 2 AT1 receptor in Japanese White rabbits thoracic aorta assessed as inhibition of angiotensin II-induced contraction after 60 mins; settings: read-out: pA2 (converted)
T2 sequence (P34976 whole entry): T1 sequence (P30556 whole entry) with I2M, V49A, I254V, I270V, R272H, R311K, T349S, A353V

[3] = Toxicity against Photobacterium phosphoreum T3 mutant assessed as inhibition of luminescence after 15 mins by microtox test; assay type: organism-based; settings: Photobacterium phosphoreum T3 mutant (luminescent bacteria), read-out: LC50
[4] = target: T3, Type-2 angiotensin II receptor (Homo sapiens, UniProt P50052); test: Displacement of [125I]Sar1 Ile8-Ang 2 from angiotensin 2 AT2 receptor after 180 mins by gamma counting
T3 sequence (P50052 whole entry): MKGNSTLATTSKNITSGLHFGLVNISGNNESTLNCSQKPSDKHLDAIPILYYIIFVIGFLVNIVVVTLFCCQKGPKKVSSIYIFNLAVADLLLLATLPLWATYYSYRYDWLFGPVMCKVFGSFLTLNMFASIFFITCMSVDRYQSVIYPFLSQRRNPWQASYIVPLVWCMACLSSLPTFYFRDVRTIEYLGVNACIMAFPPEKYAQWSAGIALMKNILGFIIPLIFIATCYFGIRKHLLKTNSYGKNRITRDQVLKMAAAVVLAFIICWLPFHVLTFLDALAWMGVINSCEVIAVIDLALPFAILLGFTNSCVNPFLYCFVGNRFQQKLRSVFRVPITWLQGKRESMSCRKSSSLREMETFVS

Rattus norvegicus = test: Antihypertensive activity in spontaneously hypertensive rat assessed as decrease in blood pressure at 10 mg/kg, po by tail plethysmography; assay type: functional
[5] = target: T4, Type-1 angiotensin II receptor (Homo sapiens) (UniProt P30556); test: Ratio of losartan IC50 to compound IC50 for angiotensin 2 AT1 receptor
T4 sequence (whole entry): T1 sequence (P30556 whole entry)

SMILES	IC50 [1]	Kb [2]	EC50 (luminescence inhibition) at 0.25 h [3]	IC50 [4]	Activity (Rattus norvegicus)	Ratio IC50 [5]
CCCc1nc2c(C)cc(C(=O)NCc3ccc(OC)cc3)cc2n1Cc1ccc(-c2ccccc2C(=O)O)cc1	4.3 nM	4.79 nM	> 100 µg/mL	3600 nM	–	–
CCCc1nc2c(C)cc(C(=O)NCc3cccc(OC)c3)cc2n1Cc1ccc(-c2ccccc2C(=O)O)cc1	326 nM	–	> 100 µg/mL	> 10000 nM	–	–
CCCc1nc2c(C)cc(C(=O)NCc3ccc(OC)c(OC)c3)cc2n1Cc1ccc(-c2ccccc2C(=O)O)cc1	30.6 nM	–	> 100 µg/mL	> 10000 nM	–	–
CCCc1nc2c(C)cc(C(=O)NCc3ccccc3OC)cc2n1Cc1ccc(-c2ccccc2C(=O)O)cc1	2.4 nM	6.92 nM	> 100 µg/mL	1100 nM	–	–
CCCc1nc2c(C)cc(C(=O)NCCc3ccc(OC)cc3)cc2n1Cc1ccc(-c2ccccc2C(=O)O)cc1	214 nM	–	> 100 µg/mL	1500 nM	–	–
CCCc1nc2c(C)cc(C(=O)NCc3ccccc3)cc2n1Cc1ccc(-c2ccccc2C(=O)O)cc1	52.5 nM	–	78 µg/mL (≈ 151 µM)	–	–	–
CCCc1nc2c(C)cc(C(=O)NCCc3cc(OC)ccc3OC)cc2n1Cc1ccc(-c2ccccc2C(=O)O)cc1	1.3 nM	3.16 nM	> 100 µg/mL	1400 nM	>30 mmHg	12
CCCc1nc2c(C)cc(C(=O)NCCc3ccc(OC)c(OC)c3)cc2n1Cc1ccc(-c2ccccc2C(=O)O)cc1	57.6 nM	–	> 100 µg/mL	1200 nM	–	–
CCCc1nc2c(C)cc(C(=O)NCCc3ccccc3F)cc2n1Cc1ccc(-c2ccccc2C(=O)O)cc1	106 nM	–	65 µg/mL (≈ 118 µM)	–	–	–
CCCc1nc2c(C)cc(C(=O)NCCc3ccc(F)cc3)cc2n1Cc1ccc(-c2ccccc2C(=O)O)cc1	198 nM	–	89 µg/mL (≈ 162 µM)	1300 nM	–	–
CCCc1nc2c(C)cc(C(=O)NCCc3cccc(OC)c3)cc2n1Cc1ccc(-c2ccccc2C(=O)O)cc1	30.8 nM	–	72 µg/mL (≈ 128 µM)	> 10000 nM	–	–
